From patent US12398160B2, “Cot modulators and methods of use thereof” (Gilead Sciences, Inc., priority 2019, dated 2025) come the findings set out here.

The nature of this data set: In vivo dog pharmacokinetics. The settings on record: for AUC0-72 h: beagle dogs N=3.
The mark [1] stands for this setting: plasma level of the labelled analyte after oral dose of Compound B (9.7 mg-eq/kg), powder in capsule.

As to `Cn1ccc2c([C@H](Nc3cc(Cl)c4ncc(C#N)c(NCC(C)(C)C)c4c3)c3cn(C45CC(C4)C5)nn3)cccc2c1=O` [Compound A], under “beagle dogs, powder in capsule, after dosing with Compound B versus Compound A”, the “AUC0-72 h for Compound A in plasma, dosing with Compound B compared with equivalent dose of Compound A” value was “higher”.
For `Cn1ccc2c([C@@H](c3cn(C45CC(C4)C5)nn3)N(C(=O)OCCCOP(=O)(O)O)c3cc(Cl)c4ncc(C#N)c(NCC(C)(C)C)c4c3)cccc2c1=O` [Compound C], for the setting “beagle dogs, Compound C solution formulation, 72 hour period”, the “In vivo conversion after dosing” value is “converted in vivo to both Compound D and Compound A in measurable amounts”. Further, under “plasma level of the labelled analyte after oral dose of Compound C (3 mg-eq/kg), 3 mg/mL solution”, the AUC0-72 h result was “BLQ”.
For `Cn1ccc2c([C@@H](c3cn(C45CC(C4)C5)nn3)N(C(=O)OCOP(=O)(O)O)c3cc(Cl)c4ncc(C#N)c(NCC(C)(C)C)c4c3)cccc2c1=O` [Compound B], the AUC0-72 h entry under setting [1] is recorded as “BLQ”.
Consider `Cn1ccc2c([C@@H](c3cn(C45CC(C4)C5)nn3)N(C(=O)OCO)c3cc(Cl)c4ncc(C#N)c(NCC(C)(C)C)c4c3)cccc2c1=O` [Intermediate A], for which the AUC0-72 h entry under setting [1] was “BLQ”.
